Reference: PubChem BioAssay (NCI)
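Exposure lasted 48 hours, with cells grown in 96-well plates and compounds tested at five concentrations. Here, GI50 denotes the concentration required for 50% inhibition of growth. At the TGI there is no net growth.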

Key:
Assay in all cases: NCI anticancer screen, dose series, 48 h
SF-268 CNS = tested on: SF-268 CNS
BT-549 breast = tested on: BT-549 breast
OVCAR-8 ovarian = tested on: OVCAR-8 ovarian
SR leukemia = tested on: SR leukemia
786-0 renal = tested on: 786-0 renal
MALME-3M melanoma = tested on: MALME-3M melanoma
HCT-116 colon = tested on: HCT-116 colon
M14 melanoma = tested on: M14 melanoma
SN12C renal = tested on: SN12C renal
HCC-2998 colon = tested on: HCC-2998 colon
K-562 leukemia = tested on: K-562 leukemia
HOP-92 NSCLC = tested on: HOP-92 NSCLC
SF-539 CNS = tested on: SF-539 CNS
SK-MEL-28 melanoma = tested on: SK-MEL-28 melanoma
UACC-62 melanoma = tested on: UACC-62 melanoma
CCRF-CEM leukemia = tested on: CCRF-CEM leukemia
ACHN renal = tested on: ACHN renal
SF-295 CNS = tested on: SF-295 CNS
UO-31 renal = tested on: UO-31 renal
A549 NSCLC = tested on: A549 NSCLC
HT29 colon = tested on: HT29 colon
HS 578T breast = tested on: HS 578T breast
NCI/ADR-RES ovarian = tested on: NCI/ADR-RES ovarian
UACC-257 melanoma = tested on: UACC-257 melanoma
OVCAR-5 ovarian = tested on: OVCAR-5 ovarian
HL-60(TB) leukemia = tested on: HL-60(TB) leukemia
RPMI-8226 leukemia = tested on: RPMI-8226 leukemia
OVCAR-3 ovarian = tested on: OVCAR-3 ovarian
MDA-MB-435 = tested on: MDA-MB-435
SNB-75 CNS = tested on: SNB-75 CNS
HOP-62 NSCLC = tested on: HOP-62 NSCLC
COLO 205 colon = tested on: COLO 205 colon
MOLT-4 leukemia = tested on: MOLT-4 leukemia
T-47D breast = tested on: T-47D breast
DU-145 prostate = tested on: DU-145 prostate
SK-OV-3 ovarian = tested on: SK-OV-3 ovarian
A498 renal = tested on: A498 renal
IGROV1 ovarian = tested on: IGROV1 ovarian
MCF7 breast = tested on: MCF7 breast
OVCAR-4 ovarian = tested on: OVCAR-4 ovarian
NCI-H226 lung = tested on: NCI-H226 lung
MDA-MB-231 breast = tested on: MDA-MB-231 breast
U251 CNS = tested on: U251 CNS
CAKI-1 renal = tested on: CAKI-1 renal
NCI-H23 lung = tested on: NCI-H23 lung
SNB-19 CNS = tested on: SNB-19 CNS
NCI-H460 lung = tested on: NCI-H460 lung
LOX IMVI melanoma = tested on: LOX IMVI melanoma
PC-3 prostate = tested on: PC-3 prostate
HCT-15 colon = tested on: HCT-15 colon
RXF 393 renal = tested on: RXF 393 renal
SK-MEL-5 melanoma = tested on: SK-MEL-5 melanoma
SW-620 colon = tested on: SW-620 colon
SK-MEL-2 melanoma = tested on: SK-MEL-2 melanoma
TK-10 renal = tested on: TK-10 renal
NCI-H522 lung = tested on: NCI-H522 lung
KM12 colon = tested on: KM12 colon

SMILES: OCc1ccc(N(Cc2ccc(F)cc2)CC2CC2)cc1Cl
- GI50 (SF-268 CNS): 14.7 µM
- TGI (SF-268 CNS): 28.7 µM
- GI50 (BT-549 breast): 14.3 µM
- TGI (BT-549 breast): 28.2 µM
- GI50 (OVCAR-8 ovarian): 11.8 µM
- TGI (OVCAR-8 ovarian): 25.3 µM
- GI50 (SR leukemia): 13.4 µM
- TGI (SR leukemia): 34 µM
- GI50 (786-0 renal): 6.8 µM
- TGI (786-0 renal): 21.3 µM
- GI50 (MALME-3M melanoma): 14.6 µM
- TGI (MALME-3M melanoma): 29.9 µM
- GI50 (HCT-116 colon): 0.254 µM
- TGI (HCT-116 colon): 11 µM
- GI50 (M14 melanoma): 14.5 µM
- TGI (M14 melanoma): 29.8 µM
- GI50 (SN12C renal): 9.04 µM
- TGI (SN12C renal): 21.8 µM
- GI50 (HCC-2998 colon): 8.82 µM
- TGI (HCC-2998 colon): 22.4 µM
- GI50 (K-562 leukemia): 3.12 µM
- TGI (K-562 leukemia): 17.8 µM
- GI50 (HOP-92 NSCLC): 1.61 µM
- TGI (HOP-92 NSCLC): 11.3 µM
- GI50 (SF-539 CNS): 14.7 µM
- TGI (SF-539 CNS): 28.2 µM
- GI50 (SK-MEL-28 melanoma): 13.1 µM
- TGI (SK-MEL-28 melanoma): 25.9 µM
- GI50 (UACC-62 melanoma): 0.263 µM
- TGI (UACC-62 melanoma): 1.74 µM
- GI50 (CCRF-CEM leukemia): 15.6 µM
- TGI (CCRF-CEM leukemia): 39.9 µM
- GI50 (ACHN renal): 11.7 µM
- TGI (ACHN renal): 24 µM
- GI50 (SF-295 CNS): 1.2 µM
- TGI (SF-295 CNS): 11.7 µM
- GI50 (UO-31 renal): 3.43 µM
- TGI (UO-31 renal): 15.6 µM
- GI50 (A549 NSCLC): 3.16 µM
- TGI (A549 NSCLC): 16.9 µM
- GI50 (HT29 colon): 6.49 µM
- TGI (HT29 colon): 20.3 µM
- GI50 (HS 578T breast): 14.7 µM
- TGI (HS 578T breast): 38.9 µM
- GI50 (NCI/ADR-RES ovarian): 12.1 µM
- TGI (NCI/ADR-RES ovarian): 28.8 µM
- GI50 (UACC-257 melanoma): 0.228 µM
- TGI (UACC-257 melanoma): 1.03 µM
- GI50 (OVCAR-5 ovarian): 0.191 µM
- TGI (OVCAR-5 ovarian): 0.794 µM
- GI50 (HL-60(TB) leukemia): 5.06 µM
- TGI (HL-60(TB) leukemia): 26.3 µM
- GI50 (RPMI-8226 leukemia): 5.47 µM
- TGI (RPMI-8226 leukemia): 36 µM
- GI50 (OVCAR-3 ovarian): 1.31 µM
- TGI (OVCAR-3 ovarian): 4.94 µM
- GI50 (MDA-MB-435): 15.7 µM
- TGI (MDA-MB-435): 31.2 µM
- GI50 (SNB-75 CNS): 10.8 µM
- TGI (SNB-75 CNS): 23.1 µM
- GI50 (HOP-62 NSCLC): 3.09 µM
- TGI (HOP-62 NSCLC): 16.2 µM
- GI50 (COLO 205 colon): 5.4 µM
- TGI (COLO 205 colon): 17.4 µM
- GI50 (MOLT-4 leukemia): 13.7 µM
- TGI (MOLT-4 leukemia): 34.9 µM
- GI50 (T-47D breast): 0.271 µM
- TGI (T-47D breast): 2.86 µM
- GI50 (DU-145 prostate): 13.3 µM
- TGI (DU-145 prostate): 26.4 µM
- GI50 (SK-OV-3 ovarian): 10.6 µM
- TGI (SK-OV-3 ovarian): 22.7 µM
- GI50 (A498 renal): 0.0363 µM
- TGI (A498 renal): 0.154 µM
- GI50 (IGROV1 ovarian): 0.176 µM
- TGI (IGROV1 ovarian): 1.19 µM
- GI50 (MCF7 breast): 0.585 µM
- TGI (MCF7 breast): 12.6 µM
- GI50 (OVCAR-4 ovarian): 0.511 µM
- TGI (OVCAR-4 ovarian): 7.34 µM
- GI50 (NCI-H226 lung): 0.0419 µM
- TGI (NCI-H226 lung): 0.0943 µM
- GI50 (MDA-MB-231 breast): 11.5 µM
- TGI (MDA-MB-231 breast): 24.3 µM
- GI50 (U251 CNS): 1.48 µM
- TGI (U251 CNS): 14 µM
- GI50 (CAKI-1 renal): 6.54 µM
- TGI (CAKI-1 renal): 21.9 µM
- GI50 (NCI-H23 lung): 4.74 µM
- TGI (NCI-H23 lung): 20.2 µM
- GI50 (SNB-19 CNS): 12.3 µM
- TGI (SNB-19 CNS): 25.4 µM
- GI50 (NCI-H460 lung): 0.57 µM
- TGI (NCI-H460 lung): 9.47 µM
- GI50 (LOX IMVI melanoma): 13.2 µM
- TGI (LOX IMVI melanoma): 26.3 µM
- GI50 (PC-3 prostate): 12.1 µM
- TGI (PC-3 prostate): 25.7 µM
- GI50 (HCT-15 colon): 10.3 µM
- TGI (HCT-15 colon): 22.9 µM
- GI50 (RXF 393 renal): 1.29 µM
- TGI (RXF 393 renal): 8.48 µM
- GI50 (SK-MEL-5 melanoma): 3.72 µM
- TGI (SK-MEL-5 melanoma): 16.6 µM
- GI50 (SW-620 colon): 2.38 µM
- TGI (SW-620 colon): 16.2 µM
- GI50 (SK-MEL-2 melanoma): 5.39 µM
- TGI (SK-MEL-2 melanoma): 19 µM
- GI50 (TK-10 renal): 0.0609 µM
- TGI (TK-10 renal): 0.398 µM
- GI50 (NCI-H522 lung): 11.5 µM
- TGI (NCI-H522 lung): 26.3 µM
- GI50 (KM12 colon): 12.9 µM
- TGI (KM12 colon): 25.8 µM
